Laboratory results: BindingDB's records for PubMed 8100350 (University of Pennsylvania, 1993)
*1 amine or outer side, *2 acyl side, *3 side chain or, on linkers, in order; H or OH if unused. Where a SMILES comes first, the peptide text is derived from it. Bridges are numbered along the chain shown (N, C = ends). [ ]: non-standard residue; d: D form. The star is where a group is joined. ξ: configuration not given here. NH(1-naphthylmethyl) = c1ccc2c(CN*)cccc2c1; Phe(4-Cl) = N[C@@H](Cc1ccc(Cl)cc1)C(=O)O; dPhe(4-Cl) = N[C@H](Cc1ccc(Cl)cc1)C(=O)O; 1Nal = N[CH](Cc1cccc2ccccc12)C(=O)O; 2Nal = N[C@@H](Cc1ccc2ccccc2c1)C(=O)O; d2Nal = N[C@H](Cc1ccc2ccccc2c1)C(=O)O; X1 = O=C(C(N[*:1])S[*:3])[*:2]; Thr(3ξ) = CC(O)[C@H](N)C(=O)O; Thr(ol) = C[CH](O)[CH](N)CO; Ahp = NCCCCCCC(=O)O; Bn = c1ccc(C*)cc1; ξC = NC(CS)C(=O)O; Mpa = O=C(O)CCS

Assays:
[1] = molecular target: Somatostatin receptor type 2 (Mus musculus, UniProt P30875)
[2] = molecular target: Somatostatin receptor type 1 (Homo sapiens, UniProt P30872)
[3] = molecular target: Somatostatin receptor type 3 (Mus musculus, UniProt P30935)
Chain of Somatostatin receptor type 3 (P30935 whole entry): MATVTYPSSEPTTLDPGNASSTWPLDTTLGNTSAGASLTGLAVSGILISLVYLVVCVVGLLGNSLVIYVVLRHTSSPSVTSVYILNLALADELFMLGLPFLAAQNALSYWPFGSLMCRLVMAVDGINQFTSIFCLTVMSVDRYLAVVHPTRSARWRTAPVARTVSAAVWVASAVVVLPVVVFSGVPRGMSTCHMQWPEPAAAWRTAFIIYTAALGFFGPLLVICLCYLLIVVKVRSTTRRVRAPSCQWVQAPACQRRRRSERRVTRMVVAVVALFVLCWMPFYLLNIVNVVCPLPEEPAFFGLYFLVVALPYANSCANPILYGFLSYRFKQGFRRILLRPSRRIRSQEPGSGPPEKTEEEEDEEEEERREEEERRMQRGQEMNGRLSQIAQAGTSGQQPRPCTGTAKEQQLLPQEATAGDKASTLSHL

Chain of Somatostatin receptor type 2 (P30875 whole entry): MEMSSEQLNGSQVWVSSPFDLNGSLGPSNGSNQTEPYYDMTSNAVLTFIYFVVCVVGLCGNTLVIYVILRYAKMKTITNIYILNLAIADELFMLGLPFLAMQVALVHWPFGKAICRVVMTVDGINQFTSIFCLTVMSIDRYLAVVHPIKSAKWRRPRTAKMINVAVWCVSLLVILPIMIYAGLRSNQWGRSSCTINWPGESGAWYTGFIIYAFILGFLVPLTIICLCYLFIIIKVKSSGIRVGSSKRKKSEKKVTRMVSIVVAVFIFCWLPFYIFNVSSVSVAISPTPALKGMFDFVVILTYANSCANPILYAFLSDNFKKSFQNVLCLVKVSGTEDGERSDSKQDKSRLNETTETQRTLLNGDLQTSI
Chain of Somatostatin receptor type 1 (P30872 whole entry): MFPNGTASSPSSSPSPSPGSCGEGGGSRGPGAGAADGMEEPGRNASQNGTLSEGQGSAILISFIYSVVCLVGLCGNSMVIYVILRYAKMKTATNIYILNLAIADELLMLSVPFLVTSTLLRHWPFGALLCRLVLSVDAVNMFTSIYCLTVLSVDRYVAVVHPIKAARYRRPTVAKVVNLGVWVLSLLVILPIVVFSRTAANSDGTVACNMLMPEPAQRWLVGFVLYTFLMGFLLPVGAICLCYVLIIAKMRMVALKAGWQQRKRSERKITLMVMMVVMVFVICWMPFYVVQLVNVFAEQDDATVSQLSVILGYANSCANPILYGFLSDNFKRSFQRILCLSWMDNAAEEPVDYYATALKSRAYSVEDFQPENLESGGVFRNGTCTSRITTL

| SMILES | Ki [1] [nM] | Ki [2] [nM] | Ki [3] [nM] |
| --- | --- | --- | --- |
| CC(C)[C@H](NC(=O)[C@H](CCCCN)NC(=O)[C@@H](Cc1c[nH]c2ccccc12)NC(=O)[C@H](Cc1ccc(O)cc1)NC(=O)[C@H](C)NC(=O)[C@H](N)Cc1ccc(Cl)cc1)C(=O)N[C@@H](C)C(=O)N[C@@H](Cc1ccc2ccccc2c1)C(N)=O [CAS_150155-67-2] (H-[dPhe(4-Cl)]AY[dW]KVA[2Nal]-NH2) | 22 | 1000 | 143 |
| C[C@@H](O)[C@H](NC(=O)[C@H](Cc1ccccc1)NC(=O)[C@@H](NC(=O)[C@H](CCCCN)NC(=O)[C@@H](Cc1c[nH]c2ccccc12)NC(=O)[C@H](Cc1ccccc1)NC(=O)[C@H](Cc1ccccc1)NC(=O)[C@H](N)Cc1ccccc1)[C@@H](C)O)C(N)=O [CAS_133073-82-2] (H-[dF]FF[dW]KTFT-NH2) | 32 | 23 | 0.42 |
| C[C@@H](O)[C@@H]1NC(=O)[C@H](CCCCN)NC(=O)[C@@H](Cc2c[nH]c3ccccc23)NC(=O)[C@H](Cc2ccccc2)NC(=O)CCCCCCNC1=O [c[Aha-Phe-D-Trp-Lys-Thr]] (cyclo([Ahp]F[dW]KT)) | 1000 | 1000 | 1000 |
| CC(C)[C@H](NC(=O)[C@H](CCCCN)NC(=O)[C@@H](Cc1c[nH]c2ccccc12)NC(=O)[C@H](Cc1ccc(O)cc1)NC(=O)[C@H](Cc1ccc(Cl)cc1)NC(=O)[C@H](N)Cc1ccccc1)C(=O)N[C@@H](Cc1ccccc1)C(=O)N[C@H](C(N)=O)[C@@H](C)O [BIM 23057] (H-[dF][Phe(4-Cl)]Y[dW]KVFT-NH2) | 2.4 | 1000 | 4.8 |
| CC1NC(=O)C(CCCCN)NC(=O)C(Cc2c[nH]c3ccccc23)NC(=O)C(Cc2ccc(O)cc2)NC(=O)C(NC(=O)C(N)Cc2ccccc2)CSSCC(C(=O)NCc2cccc3ccccc23)NC1=O (configuration not stated) [BIM 23034] (H-FCYWKAC-{NH(1-naphthylmethyl)}; disulfide 2-7; configuration not given here) | 0.002 | 1000 | 65 |
| CC(O)[C@H](NC(=O)[C@H](CCCCN)NC(=O)[C@@H](Cc1c[nH]c2ccccc12)NC(=O)[C@H](Cc1ccc(O)cc1)NC(=O)[C@@H](C)NC(=O)[C@@H](N)Cc1ccccc1)C(=O)N[C@@H](C)C(=O)N[C@@H](Cc1cccc2ccccc12)C(N)=O (some centres not stated) [BIM 23070] (H-F[dA]Y[dW]K[Thr(3ξ)]A[1Nal]-NH2) | 7.8 | 1000 | 111 |
| C[C@@H](O)[C@H](NC(=O)[C@@H]1CSSC[C@H](NC(=O)[C@H](N)Cc2ccc3ccccc3c2)C(=O)N[C@@H](Cc2ccc(O)cc2)C(=O)N[C@H](Cc2c[nH]c3ccccc23)C(=O)N[C@@H](CCCCN)C(=O)N[C@@H]([C@@H](C)O)C(=O)N1)C(N)=O [D-Nal-c[Cys-Tyr-D-Trp-Lys-Thr-Cys]-Thr-NH2] | 0.008 | 1000 | 7.1 |
| NCCCCC1NC(=O)C(Cc2c[nH]c3ccccc23)NC(=O)C(Cc2ccc(O)cc2)NC(=O)C(NC(=O)C(N)Cc2ccccc2)CSSCC(C(=O)NCc2cccc3ccccc23)NC(=O)C(CO)NC1=O (configuration not stated) [NC4-28B] (H-FCYWKSC-{NH(1-naphthylmethyl)}; disulfide 2-7; configuration not given here) | 0.002 | 1000 | 112 |
| NCCCC[C@@H]1NC(=O)[C@@H](Cc2c[nH]c3ccccc23)NC(=O)[C@H](Cc2ccccc2)NC(=O)CCCCCCNC(=O)[C@H](COCc2ccccc2)NC1=O [c[Aha-Phe-D-Trp-Lys-Ser(Bzl)]] (cyclo([Ahp]F[dW]KS(Bn))) | 1000 | 80 | 214 |
| C[C@@H](O)[C@H](NC(=O)[C@H](Cc1ccccc1)NC(=O)[C@@H](NC(=O)[C@H](CCCCN)NC(=O)[C@@H](Cc1c[nH]c2ccccc12)NC(=O)[C@H](Cc1ccc(O)cc1)NC(=O)[C@H](Cc1ccc(Cl)cc1)NC(=O)[C@H](N)Cc1ccc2ccccc2c1)[C@@H](C)O)C(N)=O [CAS_150155-63-8] (H-[d2Nal][Phe(4-Cl)]Y[dW]KTFT-NH2) | 40 | 1000 | 11 |
| C[C@@H](O)[C@@H]1NC(=O)[C@H](CCCCN)NC(=O)[C@@H](Cc2c[nH]c3ccccc23)NC(=O)[C@H](Cc2ccccc2)NC(=O)[C@@H]2CSSCC(NC1=O)C(=O)NCCCCCCC(=O)N2 [(1R,4S,7S,10R,13S,16R)-4-[(R)-1-Hydroxyethyl]-7-(4-aminobutyl)-10-(1H-indole-3-ylmethyl)-13-benzyl-28,29-dithia-2,5,8,11,14,17,25-heptaazabicyclo[14.10.4]triacontane-3,6,9,12,15,18,26-heptone] (cyclo([Ahp]CF[dW]KT[ξC]); disulfide 2-7) | 83 | 1000 | 0.08 |
| C[C@@H](O)[C@@H]1NC(=O)[C@H](CCCCN)NC(=O)[C@@H](Cc2c[nH]c3ccccc23)NC(=O)[C@H](Cc2c[nH]c3ccccc23)NC(=O)[C@H](Cc2ccccc2)NC(=O)CCCCCCNC(=O)[C@H](Cc2ccccc2)NC1=O [L-362855] (cyclo([Ahp]FW[dW]KTF)) | 29 | 1000 | 30 |
| CC(C)C1NC(=O)C(CCCCN)NC(=O)C(Cc2c[nH]c3ccccc23)NC(=O)C(Cc2ccc(O)cc2)NC(=O)C(NC(=O)C(N)Cc2cccc3ccccc23)CSSCC(C(=O)NC(CO)C(C)O)NC1=O (configuration not stated) [DC23-60] (H-[1Nal]CYWKVC[Thr(ol)]; disulfide 2-7; configuration not given here) | 0.93 | 241 | 166 |
| C[C@@H](OCc1ccccc1)[C@@H]1NC(=O)[C@H](CCCCN)NC(=O)[C@@H](Cc2c[nH]c3ccccc23)NC(=O)[C@H](Cc2ccccc2)NC(=O)CCCCCCNC1=O [c[Aha-Phe-D-Trp-Lys-Thr(Bzl)]] (cyclo([Ahp]F[dW]KT(Bn))) | 1000 | 141 | 107 |
| CC(C)[C@@H]1NC(=O)[C@H](CCCCN)NC(=O)[C@@H](Cc2c[nH]c3ccccc23)NC(=O)[C@H](Cc2ccc(O)cc2)NC(=O)[C@@H](NC(=O)[C@H](N)Cc2ccc3ccccc3c2)CSSC[C@@H](C(=O)N[C@H](C(N)=O)[C@@H](C)O)NC1=O [3-(2-Naphtyl)-D-Ala-L-Cys(1)-L-Tyr-D-Trp-L-Lys-L-Val-L-Cys(1)-L-Thr-NH2] | 1.6 | 789 | 5.6 |
| C[C@@H](O)[C@@H]1NC(=O)[C@H](CCCCN)NC(=O)[C@@H](Cc2c[nH]c3ccccc23)NC(=O)[C@H](Cc2ccc(Cl)cc2)NC(=O)[C@H](Cc2ccccc2)NC(=O)CCCCCCNC(=O)[C@H](Cc2ccccc2)NC1=O [L-362862] (cyclo([Ahp]F[Phe(4-Cl)][dW]KTF)) | 8.3 | 580 | 24 |
| CC(C)[C@@H]1NC(=O)[C@H](CCCCN)NC(=O)[C@@H](Cc2c[nH]c3ccccc23)NC(=O)[C@H](Cc2ccc(O)cc2)NC(=O)CCSSC(C(=O)N[C@@H](Cc2ccccc2)C(N)=O)NC1=O (some centres not stated) [CAS_117580-24-2] ([Mpa]Y[dW]KV[X1]F-NH2; disulfide 1-6) | 6.1 | 1000 | 133 |
| C[C@@H](O)[C@H](NC(=O)[C@H](Cc1ccccc1)NC(=O)[C@@H](NC(=O)[C@H](CCCCN)NC(=O)[C@@H](Cc1c[nH]c2ccccc12)NC(=O)[C@H](Cc1ccc(O)cc1)NC(=O)[C@H](Cc1ccc(Cl)cc1)NC(=O)[C@H](N)Cc1ccccc1)[C@@H](C)O)C(N)=O [BIM 23068] (H-[dF][Phe(4-Cl)]Y[dW]KTFT-NH2) | 0.15 | 1000 | 0.8 |
| CC[C@@H]1NC(=O)[C@H](CCCCN)NC(=O)[C@@H](Cc2c[nH]c3ccccc23)NC(=O)[C@H](Cc2ccc(O)cc2)NC(=O)[C@@H](NC(=O)[C@H](N)Cc2ccccc2)CSSC[C@@H](C(=O)N[C@H](C(N)=O)[C@@H](C)O)NC1=O [D-Phe-L-Cys(1)-L-Tyr-D-Trp-L-Lys-L-Abu-L-Cys(1)-L-Thr-NH2] | 0.001 | 1000 | 13.5 |
